{"source": "the supplement of paper PMC10307832", "experiment_in_all_cases": "relative viability (nuclei count vs DMSO), 5 days (fraction); higher = more cells survive", "key": {"[1]": {"compound": "C(C(=O)C(=O)O)Br [Bromopyruvate] + CC1(C)CCC(c2ccc(Cl)cc2)=C(CN2CCN(c3ccc(C(=O)NS(=O)(=O)c4ccc(N[C@H](CCN5CCOCC5)CSc5ccccc5)c(S(=O)(=O)C(F)(F)F)c4)cc3)CC2)C1 [Navitoclax] (partner 0.5 µM)", "procedure,_shortened": "(§1)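 Relative viability is defined as nuclei in treated wells over nuclei in vehicle wells. Duplicate plates were run and medians reported. Lung cancer cell lines in 1536-well plates were dosed by pin tool one day after seeding, with one drug or with a fixed anchor-drug dose plus five library-drug doses (not always all listed) in √10 steps, and nuclei were counted after 5 days.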"}, "Bromopyruvate + OSI-027": {"compound": "C(C(=O)C(=O)O)Br [Bromopyruvate] + COc1cccc2cc(-c3nc([C@H]4CC[C@H](C(=O)O)CC4)n4ncnc(N)c34)[nH]c12 [OSI-027] (partner 0.5 µM)", "procedure,_shortened": "as §1"}, "[2]": {"compound": "CC(O)(CS(=O)(=O)c1ccc(F)cc1)C(=O)Nc1ccc(C#N)c(C(F)(F)F)c1 [Bicalutamide] + CC1(C)CCC(c2ccc(Cl)cc2)=C(CN2CCN(c3ccc(C(=O)NS(=O)(=O)c4ccc(N[C@H](CCN5CCOCC5)CSc5ccccc5)c(S(=O)(=O)C(F)(F)F)c4)cc3)CC2)C1 [Navitoclax] (partner 0.5 µM)", "procedure,_shortened": "as §1"}, "Bicalutamide + Lapatinib": {"compound": "CC(O)(CS(=O)(=O)c1ccc(F)cc1)C(=O)Nc1ccc(C#N)c(C(F)(F)F)c1 [Bicalutamide] + CS(=O)(=O)CCNCc1ccc(-c2ccc3ncnc(Nc4ccc(OCc5cccc(F)c5)c(Cl)c4)c3c2)o1 [Lapatinib] (partner 2 µM)", "procedure,_shortened": "as §1"}}, "data": [{"cell line": "UMC-11", "values": [{"measurement": "relative viability", "setting": "[1]; first compound 1 µM", "result": 0.289}, {"measurement": "relative viability", "setting": "[1]; first compound 3.162 µM", "result": 0.291}, {"measurement": "relative viability", "setting": "[1]; first compound 10 µM", "result": 0.304}, {"measurement": "relative viability", "setting": "[1]; first compound 31.62 µM", "result": 0.297}, {"measurement": "relative viability", "setting": "[1]; first compound 100 µM", "result": 0.288}, {"measurement": "relative viability", "setting": "Bromopyruvate + OSI-027; first compound 1 µM", "result": 0.518}, {"measurement": "relative viability", "setting": "Bromopyruvate + OSI-027; first compound 3.162 µM", "result": 0.452}, {"measurement": "relative viability", "setting": "Bromopyruvate + OSI-027; first compound 10 µM", "result": 0.491}, {"measurement": "relative viability", "setting": "Bromopyruvate + OSI-027; first compound 31.62 µM", "result": 0.533}, {"measurement": "relative viability", "setting": "Bromopyruvate + OSI-027; first compound 100 µM", "result": 0.501}, {"measurement": "relative viability", "setting": "[2]; first compound 0.08 µM", "result": 0.328}, {"measurement": "relative viability", "setting": "[2]; first compound 0.253 µM", "result": 0.25}, {"measurement": "relative viability", "setting": "[2]; first compound 0.8 µM", "result": 0.281}, {"measurement": "relative viability", "setting": "[2]; first compound 2.53 µM", "result": 0.279}, {"measurement": "relative viability", "setting": "Bicalutamide + Lapatinib; first compound 0.08 µM", "result": 0.951}, {"measurement": "relative viability", "setting": "Bicalutamide + Lapatinib; first compound 0.253 µM", "result": 0.723}, {"measurement": "relative viability", "setting": "Bicalutamide + Lapatinib; first compound 0.8 µM", "result": 1.12}, {"measurement": "relative viability", "setting": "Bicalutamide + Lapatinib; first compound 2.53 µM", "result": 0.899}]}]}
